From patent publication US20050075375A1 (priority 2003, published 2005) come the findings set out here.

This assay relates to monocistronic NK5.1 HCV replicon in Huh7 cells. Briefly: HCV replicon assay, monocistronic replicon cell line. Type of assay: cell-based, hepatitis C virus. To be noted: Hepatitis C virus, Huh-7; monocistronic NK5.1 HCV replicon in Huh7 cells; median value; read-out: Mono EC50 Median. The procedure, abridged: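 Huh7 cells carrying the monocistronic NK5.1 replicon, seeded 24 h before dosing, were exposed to six-point half-log compound series (0.6% DMSO) for 3 days at 37 °C. Replicon RNA was quantified by TaqMan RT-PCR, normalised to GAPDH and compared with DMSO controls to derive EC50.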
For orientation: Replicon systems follow genome replication, usually without infectious particles.

Usually EC50 stands for the concentration needed to bring the measured effect to its halfway point. For the compound `O=[N+]([O-])c1ccccc1-c1nnc(-c2c(O)ccc3ccccc23)o1` [Compound 311, 1-[5-(2-Nitro-phenyl)-[1,3,4]oxadiazol-2-yl]-naphthalen-2-ol], the EC50 is 4 µM.
Then `Cc1ccccc1-c1nnc(-c2ccccc2)o1` [Compound 312, 2-Phenyl-5-o-tolyl-[1,3,4]oxadiazole], with > 32 µM; and `Cc1ccccc1-c1nnc(-c2ccccc2F)o1` [Compound 313, 2-(2-Fluoro-phenyl)-5-o-tolyl-[1,3,4]oxadiazole], with > 32 µM; and `Cc1ccccc1-c1nnc(-c2ccccc2C(F)(F)F)o1` [Compound 314, 2-o-Tolyl-5-(2-trifluoromethyl-phenyl)-[1,3,4]oxadiazole], with 20 µM.
Then `Cc1ccccc1-c1nnc(-c2ccccc2[N+](=O)[O-])o1` [Compound 315, 2-(2-Nitro-phenyl)-5-o-tolyl-[1,3,4]oxadiazole], with > 32 µM; and `Cc1ccccc1-c1nnc(-c2c(Cl)cccc2Cl)o1` [Compound 316, 2-(2,6-Dichloro-phenyl)-5-o-tolyl-[1,3,4]oxadiazole], with > 32 µM; and `Cc1ccccc1-c1nnc(-c2cccs2)o1` [Compound 317, 2-Thiophen-2-yl-5-o-tolyl-[1,3,4]oxadiazole], with > 32 µM.
Then `Oc1ccccc1-c1nnc(-c2ccccc2)o1` [Compound 318, 2-(5-Phenyl-[1,3,4]oxadiazol-2-yl)-phenol], with 14 µM.
For `Oc1ccccc1-c1nnc(-c2ccccc2F)o1` [Compound 319, 2-[5-(2-Fluoro-phenyl)-[1,3,4]oxadiazol-2-yl]-phenol], the EC50 came out at 18 µM.
The result for `Oc1ccccc1-c1nnc(-c2ccccc2C(F)(F)F)o1` [Compound 320, 2-[5-(2-Trifluoromethyl-phenyl)-[1,3,4]oxadiazol-2-yl]-phenol] reads > 32 µM; that for `O=[N+]([O-])c1ccccc1-c1nnc(-c2ccccc2O)o1` [Compound 321, 2-[5-(2-Nitro-phenyl)-[1,3,4]oxadiazol-2-yl]-phenol], > 32 µM.
The result for `Oc1ccccc1-c1nnc(-c2c(Cl)cccc2Cl)o1` [Compound 322, 2-[5-(2,6-Dichloro-phenyl)-[1,3,4]oxadiazol-2-yl]-phenol] reads 12 µM; that for `Oc1ccccc1-c1nnc(-c2ccco2)o1` [Compound 323, 2-(5-Furan-2-yl-[1,3,4]oxadiazol-2-yl)-phenol], > 32 µM.
With `Oc1ccccc1-c1nnc(-c2cccs2)o1` [Compound 324, 2-(5-Thiophen-2-yl-[1,3,4]oxadiazol-2-yl)-phenol], the EC50 is > 32 µM.
Then `COc1ccccc1-c1nnc(-c2ccccc2)o1` [Compound 325, 2-(2-Methoxy-phenyl)-5-phenyl-[1,3,4]oxadiazole], with > 32 µM.
Then `COc1ccccc1-c1nnc(-c2ccccc2F)o1` [Compound 326, 2-(2-Fluoro-phenyl)-5-(2-methoxy-phenyl)-[1,3,4]oxadiazole], with > 32 µM; and `COc1ccccc1-c1nnc(-c2ccccc2C(F)(F)F)o1` [Compound 327, 2-(2-Methoxy-phenyl)-5-(2-trifluoromethyl-phenyl)-[1,3,4]oxadiazole], with 25 µM.
As for `COc1ccccc1-c1nnc(-c2ccccc2[N+](=O)[O-])o1` [Compound 328, 2-(2-Methoxy-phenyl)-5-(2-nitro-phenyl)-[1,3,4]oxadiazole], the EC50 was > 32 µM.
`COc1ccccc1-c1nnc(-c2c(Cl)cccc2Cl)o1` [Compound 329, 2-(2,6-Dichloro-phenyl)-5-(2-methoxy-phenyl)-[1,3,4]oxadiazole]: the EC50 is > 32 µM.
As for `COc1ccccc1-c1nnc(-c2ccco2)o1` [Compound 330, 2-Furan-2-yl-5-(2-methoxy-phenyl)-[1,3,4]oxadiazole], the EC50 is > 32 µM.
Then `COc1ccccc1-c1nnc(-c2cccs2)o1` [Compound 331, 2-(2-Methoxy-phenyl)-5-thiophen-2-yl-[1,3,4]oxadiazole], with > 32 µM; and `Fc1ccccc1-c1nnc(-c2ccccc2)o1` [Compound 332, 2-(2-Fluoro-phenyl)-5-phenyl-[1,3,4]oxadiazole], with > 32 µM.
The result for `Fc1ccccc1-c1nnc(-c2ccccc2F)o1` [Compound 333, 2,5-Bis-(2-fluoro-phenyl)-[1,3,4]oxadiazole] reads > 32 µM; that for `Fc1ccccc1-c1nnc(-c2ccccc2C(F)(F)F)o1` [Compound 334, 2-(2-Fluoro-phenyl)-5-(2-trifluoromethyl-phenyl)-[1,3,4]oxadiazole], > 32 µM; that for `Fc1ccccc1-c1nnc(-c2c(Cl)cccc2Cl)o1` [Compound 335, 2-(2,6-Dichloro-phenyl)-5-(2-fluoro-phenyl)-[1,3,4]oxadiazole], > 32 µM.
The result for `Fc1ccccc1-c1nnc(-c2ccco2)o1` [Compound 336, 2-(2-Fluoro-phenyl)-5-furan-2-yl-[1,3,4]oxadiazole] reads > 32 µM; that for `Fc1ccccc1-c1nnc(-c2cccs2)o1` [Compound 337, 2-(2-Fluoro-phenyl)-5-thiophen-2-yl-[1,3,4]oxadiazole], > 32 µM.
`Oc1ccc2ccccc2c1-c1nnc(-c2ncccc2C(F)(F)F)o1` [Compound 338, 1-[5-(3-Trifluoromethyl-pyridin-2-yl)-[1,3,4]oxadiazol-2-yl]-naphthalen-2-ol]: the EC50 is > 19 µM.
The result for `Cc1ccccc1-c1nnc(-c2ccccn2)o1` [Compound 339, 2-(5-o-Tolyl-[1,3,4]oxadiazol-2-yl)-pyridine] reads > 32 µM.
Then `Cc1ccccc1-c1nnc(-c2ncccc2C(F)(F)F)o1` [Compound 340, 2-(5-o-Tolyl-[1,3,4]oxadiazol-2-yl)-3-trifluoromethyl-pyridine], with > 32 µM.
Take `Cc1ccccc1-c1nnc(-c2ncc(C(F)(F)F)cc2Cl)o1` [Compound 341, 3-Chloro-2-(5-o-tolyl-[1,3,4]oxadiazol-2-yl)-5-trifluoromethyl-pyridine]: the 50% effective concentration (EC50) came to 20 µM.
`Oc1ccccc1-c1nnc(-c2ncccc2C(F)(F)F)o1` [Compound 342, 2-[5-(3-Trifluoromethyl-pyridin-2-yl)-[1,3,4]oxadiazol-2-yl]-phenol]: the EC50 is > 32 µM.
The result for `Oc1ccccc1-c1nnc(-c2ncc(C(F)(F)F)cc2Cl)o1` [Compound 343, 2-[5-(3-Chloro-5-trifluoromethyl-pyridin-2-yl)-[1,3,4]oxadiazol-2-yl]-phenol] reads 17 µM.
On to `COc1ccccc1-c1nnc(-c2ccccn2)o1` [Compound 344, 2-[5-(2-Methoxy-phenyl)-[1,3,4]oxadiazol-2-yl]-pyridine], for which the EC50 is > 32 µM.
The result for `COc1ccccc1-c1nnc(-c2ncccc2C(F)(F)F)o1` [Compound 345] reads 8.3 µM; that for `COc1ccccc1-c1nnc(-c2ncc(C(F)(F)F)cc2Cl)o1` [Compound 346, 3-Chloro-2-[5-(2-methoxy-phenyl)-[1,3,4]oxadiazol-2-yl]-5-trifluoromethyl-pyridine], > 32 µM; that for `Fc1ccccc1-c1nnc(-c2ccccn2)o1` [Compound 347, 2-[5-(2-Fluoro-phenyl)-[1,3,4]oxadiazol-2-yl]-pyridine], > 32 µM.
Regarding `Fc1ccccc1-c1nnc(-c2ncccc2C(F)(F)F)o1` [Compound 348, 2-[5-(2-Fluoro-phenyl)-[1,3,4]oxadiazol-2-yl]-3-trifluoromethyl-pyridine], the EC50 was > 32 µM.
The result for `Fc1ccccc1-c1nnc(-c2ncc(C(F)(F)F)cc2Cl)o1` [Compound 349, 3-Chloro-2-[5-(2-fluoro-phenyl)-[1,3,4]oxadiazol-2-yl]-5-trifluoromethyl-pyridine] reads > 32 µM.
The result for `c1ccc(-c2n[nH]c(-c3cccc4ccccc34)n2)nc1` [Compound 350, 2-(5-Naphthalen-1-yl-1H-[1,2,4]triazol-3-yl)-pyridine] reads > 19 µM.
As to `CC(C)(C)c1ccc(O)c(-c2nc(-c3ccccn3)n[nH]2)c1` [Compound 351, 4-tert-Butyl-2-(5-pyridin-2-yl-2H-[1,2,4]triazol-3-yl)-phenol], the EC50 amounted to 8.6 µM.
With `O=[N+]([O-])c1ccc(O)c(-c2nc(-c3ccccn3)n[nH]2)c1` [Compound 352, 4-Nitro-2-(5-pyridin-2-yl-2H-[1,2,4]triazol-3-yl)-phenol], the EC50 worked out at 14 µM.
Then `Oc1ccc(F)cc1-c1nc(-c2ccccn2)n[nH]1` [Compound 353, 4-Fluoro-2-(5-pyridin-2-yl-2H-[1,2,4]triazol-3-yl)-phenol], with 7.1 µM; and `Oc1ccc(Cl)cc1-c1nc(-c2ccccn2)n[nH]1` [Compound 354, 4-Chloro-2-(5-pyridin-2-yl-2H-[1,2,4]triazol-3-yl)-phenol], with 4.8 µM; and `CCOc1cccc(-c2nc(-c3ccccn3)n[nH]2)c1O` [Compound 355, 6-Ethoxy-2-(5-pyridin-2-yl-2H-[1,2,4]triazol-3-yl)-phenol], with > 19 µM.
Then `Oc1cc(OCc2ccccc2)ccc1-c1nc(-c2ccccn2)n[nH]1` [Compound 356, 5-Benzyloxy-2-(5-pyridin-2-yl-2H-[1,2,4]triazol-3-yl)-phenol], with > 19 µM; and `Fc1cc(-c2nc(-c3ccccn3)n[nH]2)ccc1-c1ccccc1` [Compound 357, 2-[5-(2-Fluoro-biphenyl-4-yl)-1H-[1,2,4]triazol-3-yl]-pyridine], with 7.1 µM.
As to `Oc1ccc(Br)cc1-c1nc(-c2ccccn2)n[nH]1` [Compound 358, 4-Bromo-2-(5-pyridin-2-yl-2H-[1,2,4]triazol-3-yl)-phenol], the EC50 came out at 4.3 µM.
The result for `Cc1ccc(O)c(-c2nc(-c3ccccn3)n[nH]2)c1` [Compound 359, 4-Methyl-2-(5-pyridin-2-yl-2H-[1,2,4]triazol-3-yl)-phenol] reads > 19 µM.
Then `COc1ccc(O)c(-c2nc(-c3ccccn3)n[nH]2)c1` [Compound 360, 4-Methoxy-2-(5-pyridin-2-yl-2H-[1,2,4]triazol-3-yl)-phenol], with 5.4 µM.
